Earlier results on one molecule are cited in publication PMC11822664, “First‐In‐Human Dose Finding Study of Venadaparib (IDX‐1197), a Potent and Selective PARP Inhibitor, in Patients With Advanced Solid Tumors” (Cancer Medicine, 2025).

In data set [1] the test system is patients with advanced ovarian cancer. The conditions noted are these: cited from earlier work.
In a further data set the test system is PARP. The conditions noted are these: olaparib phase I trial ref 22; cited from earlier work.
[2] abbreviates: advanced ovarian cancer with ≥ 2 prior systemic treatments ref 33.

For the molecule `O=C(c1cc(Cc2n[nH]c(=O)c3ccccc23)ccc1F)N1CCN(C(=O)C2CC2)CC1` [olaparib], in data set [1] (advanced ovarian cancer ref 33), the Anemia incidence is 46% and the Neutropenia incidence is recorded as 24%. Besides, in data set [1] (setting [2]), the Nausea incidence result is reported as “approximately 76%” and the Vomiting incidence is on record as approximately 40%. Besides, the “Dose from which clinical benefit started” value with PARP was ≥ 100 mg twice daily (BID).
